Results as given in patent publication US10053725B2, “In situ interaction determination” (President and Fellows of Harvard College, priority 2013, dated 2018).
Blank lines part the entries; values can stand above or below the molecule they belong to. Where no end group is shown, it is not given here.

Experiments:
streptavidin (SA) [1] = molecular target: T1, streptavidin (SA) (Streptomyces avidinii, UniProt P22629); test: Antibody-mediated ISID with DNA-αSA and streptavidin (qPCR, mock-library enrichment); format: binding
Experimental: (§1) In cases where recombinant SA or CAII was added to HeLa lysate at 0.01% wt, the protein content of the HeLa cell lysate was first estimated using the Modified Lowry Assay Kit (Thermo Scientific). HeLa cell lysate replaced water in the primer extension reaction mixture, and was added in volumes of 5.7-8.5 μL, with a maximum weight of 60 μg total protein added.

His6-Bcl-xL = molecular target: T2, His6-Bcl-xL (Homo sapiens, UniProt Q07817); test: ISID with DNA-αHis and His6-tagged Bcl-xL; format: binding
T2 construct: His6-Bcl-xL (truncated C-terminus, amino acids 1 to 212); expressed in transfected cells; host or cells: HEK-293T (lysate)

streptavidin (SA) [2] = molecular target: T1, streptavidin (SA); details: read-out: SA-iminobiotin Kd; cited from earlier work
Bcl-xL = Bcl-xL (Homo sapiens, UniProt Q07817); details: cited from earlier work
[3] = molecular target: T3, SNAP-Bcl-xL or Bcl-xL-SNAP (Homo sapiens, UniProt Q07817); test: ISID in 293T cell lysate expressing SNAP-tagged Bcl-xL; format: binding; details: mixtures of DNA-Bak/DNA-BakL78A/DNA-biotin
T3 construct: His6-Bcl-xL (truncated C-terminus, amino acids 1 to 212); expressed in transfected cells; host or cells: HEK-293T (lysate)

CAII-His6 = molecular target: T4, CAII-His6 (Homo sapiens, UniProt P00918); test: ISID with DNA-αHis and His6-tagged CAII; format: binding
T4 construct: expressed in transfected cells; host or cells: HEK-293T (lysate)

[4] = molecular target: carbonic anhydrase II (CAII) (Homo sapiens, UniProt P00918); details: read-out: CAII:GLCBS Kd; cited from earlier work
SNAP-CAII or CAII-SNAP = molecular target: T5, SNAP-CAII or CAII-SNAP (Homo sapiens, UniProt P00918, S2A); test: ISID in 293T cell lysate expressing SNAP-tagged CAII; format: binding; details: 293T lysate expressing SNAP-CAII or CAII-SNAP; mixtures with DNA-desthiobiotin
T5 construct: expressed in transfected cells; host or cells: HEK-293T (lysate)

[5] = molecular target: T6, carbonic anhydrase II (CAII) (Homo sapiens, UniProt P00918, S2A); test: Antibody-mediated ISID with DNA-αCAII and CAII in HeLa lysate; format: binding; details: T4 DNA polymerase; mock library DNA-GLCBS/DNA-desthiobiotin; 0.01% CAII in HeLa lysate
T6 construct: made in house; host or cells: E. coli BL21(DE3), pACA plasmid
Experimental: as §1

SNAP-CA = molecular target: T7, SNAP-CA (Homo sapiens, UniProt P00918); test: Model library×library ISID with SNAP-tagged targets: CAII; format: binding; details: 262 DNA-linked ligands × 259 DNA-linked targets; counts DNA-BG sample / DNA alone sample
T7 construct: expressed in transfected cells; host or cells: HEK-293T (lysate)

SNAP-Bcl-xL = molecular target: T8, SNAP-Bcl-xL (UniProt Q07817-1 1-212, SNAP-tag covalently labelled with O6-benzylguanine-linked DNA (DNA-BG)); test: model library x library ISID, pooled 293T lysates expressing SNAP-target fusions; sequence counts with DNA-BG divided by counts with DNA alone
T8 construct: also called N-terminally SNAP-tagged Bcl-xL; not shown: SNAP-tag from the pSNAPf vector (New England Biolabs)

[6] = molecular target: T9, His6-Bcl-xL (truncated C-terminus, amino acids 1 to 212) (UniProt Q07817 1-212); test: ISID with DNA-αHis in lysate of 293T cells expressing His6-Bcl-xL, mock library, restriction digest and PAGE
T9 construct: range 1-212

[7] = T4 DNA polymerase, 8-nt complementary region, mock library with DNA-GLCBS, SA 0.01% wt in HeLa lysate

T8 sequence (Q07817 1-212): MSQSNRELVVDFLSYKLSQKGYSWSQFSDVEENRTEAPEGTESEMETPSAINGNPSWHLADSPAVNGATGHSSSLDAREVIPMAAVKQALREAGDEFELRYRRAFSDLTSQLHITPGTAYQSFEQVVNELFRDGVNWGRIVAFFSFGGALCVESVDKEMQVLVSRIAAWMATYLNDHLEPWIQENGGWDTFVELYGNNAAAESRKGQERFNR
T2 sequence (Q07817 3-212): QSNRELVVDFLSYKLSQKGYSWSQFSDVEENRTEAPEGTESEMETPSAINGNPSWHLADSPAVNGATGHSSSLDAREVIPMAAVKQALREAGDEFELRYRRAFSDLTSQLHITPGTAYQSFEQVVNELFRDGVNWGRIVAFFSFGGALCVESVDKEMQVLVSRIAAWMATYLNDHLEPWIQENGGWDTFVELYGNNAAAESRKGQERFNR
T3 sequence (Q07817 1-212): as the sequence (Q07817 1-212) above
Bcl-xL, sequence (Q07817 whole entry, species assumed): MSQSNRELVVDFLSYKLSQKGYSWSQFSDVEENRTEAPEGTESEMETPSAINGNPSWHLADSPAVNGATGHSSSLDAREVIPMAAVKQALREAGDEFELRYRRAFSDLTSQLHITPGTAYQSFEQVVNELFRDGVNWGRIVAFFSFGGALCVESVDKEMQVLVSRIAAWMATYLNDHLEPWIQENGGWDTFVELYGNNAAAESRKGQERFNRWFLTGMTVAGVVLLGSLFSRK
T9 sequence (Q07817 other isoform, or with tags, fused parts or gaps): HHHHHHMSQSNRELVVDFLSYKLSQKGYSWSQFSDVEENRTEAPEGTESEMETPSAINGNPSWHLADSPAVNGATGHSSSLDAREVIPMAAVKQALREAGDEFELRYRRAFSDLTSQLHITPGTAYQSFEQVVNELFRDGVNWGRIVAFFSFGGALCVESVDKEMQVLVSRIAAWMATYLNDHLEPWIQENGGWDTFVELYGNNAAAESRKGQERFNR

Molecule: C[C@@H]1NC(=O)N[C@@H]1CCCCCC(=O)O [desthiobiotin]
ΔCT (streptavidin (SA) [1]; DNA-αSA, 0.01% SA in HeLa lysate, qPCR): 4.7
enrichment of sequence (streptavidin (SA) [1]; [7]): ~1000 fold

Molecule: O=C(O)CCCC[C@@H]1SC[C@@H]2NC(=O)N[C@@H]21 [biotin]
enrichment of sequence (streptavidin (SA) [1]; Klenow exo−, mixtures DNA-biotin/DNA-GLCBS, SA 0.01% wt in HeLa cell lysate): ~10 fold
enrichment of sequence (streptavidin (SA) [1]; [7]): ~1,000 fold
improvement in enrichment (streptavidin (SA) [1]; T4 DNA polymerase/8-nt vs Klenow exo−/6-nt complementary region): 100 fold

Molecule: N=C1N[C@H]2[C@H](CS[C@H]2CCCCC(=O)O)N1 [iminobiotin]
Kd (streptavidin (SA) [2]): 13 µM

B1: Bad BH3 peptide (103-127) (peptide, UniProt Q92934 103-127, looked up)
peptide: NLWAAQRYGRELRRMSDEFVDSFKK
modifications: also: conjugated to 3'-thiol DNA via SM(PEG)2 crosslinker, attachment site not given here
notes: range 103-127; Used as a peptide-DNA conjugate in ISID; also called DNA-Bad; 3h-Bad
enrichment factor (SNAP-Bcl-xL): 238
enrichment [6]: ~100 fold

More lines, main results first:

ΔCT (His6-Bcl-xL; 293T cell lysate expressing His6-BclxL, vs DNA-GLCBS or DNA-biotin): 8
ΔCT (His6-Bcl-xL; recombinant His6-Bcl-xL): 3 cycles
Molecule: DNA-Bad: DNA oligonucleotide linked to Bad BH3 peptide

enrichment of sequence [3]: no enrichment
Molecule: BakL78A: BakL78A (72-87) peptide, a weakly binding mutant of the Bak peptide (GQVGRQAAIIGDDINR; not fully specified)
Kd (Bcl-xL): 270 µM

enrichment of sequence (CAII-His6; 293T cell lysate expressing CAII-His6, undiluted, mock library): ~10 fold
enrichment of sequence (CAII-His6; transfected lysate diluted 1:10 into untransfected 293T lysate): ~100 fold
enrichment of sequence (CAII-His6; transfected lysate diluted 1:100 into untransfected lysate, approximating 3 nM CAII-His6): ~10 fold
enrichment of sequence (SNAP-CAII or CAII-SNAP): ~100 fold
enrichment of sequence [5]: 10 fold
enrichment factor (SNAP-CA): 178.3
Molecule: Gly-Leu-CBS [GLCBS]
Kd [4]: 0.04 µM

enrichment factor (SNAP-Bcl-xL): 3.9
B2: BakL78A (72-87) peptide (peptide, UniProt Q16611 72-87, looked up)
peptide: GQVGRQAAIIGDDINR
modifications: also: conjugated to 3'-thiol-modified DNA via SM(PEG)2 crosslinker, site not given here
notes: range 72-87; also called DNA-BakL78A; 3i-BakL78A
